In patent US11939300B2, “Compounds and methods for treating autoimmune disorders by targeting HLA-DQ2” (ImmunoMolecular Therapeutics, Inc., priority 2020, dated 2024):

System: HLA-DQ2
Assay: Inhibition of IL-2 secretion by TCR transductants stimulated by α-gliadin peptides presented by HLA-DQ2 expressing K562 cells (ELISA)
Assay type: cell-based, human
Settings: for DQ2 IL2 Maximal % Inhibition: IL-2 secretion, at the concentration given in brackets; for concentration at which the compound exhibited maximum % inhibition (DQ2 IL2): from dose-response curve, figure in brackets in the cell
Protocol: Three commercially available analogues of the DQ2 binding molecules of the invention were tested for their ability to inhibit stimulation of T cell receptor (TCR) transductants in the presence of HLA-DQ2 expressing cells presenting known α-gliadin epitopes.
Using a previously published in vitro assay (Ostrov D, et al. Methyldopa blocks MHC class II binding to disease specific antigens in autoimmune diabetes. J Clin Invest. 2018:128(5)) we measured the ability of these DQ2 binding analogues to inhibit interleukin-2 (IL-2) secretion by TCR transductants stimulated by α-gliadin peptides presented by HLA-DQ2. Individual TCR transductants (recognizing α I-gliadin or α II-gliadin) were cultured with a gliadin peptide plus the small molecule analogues in the presence of HLA-DQ2 expressing K562 cells serving as antigen presenting cells. TCR transductants cultured with no gliadin peptide served as the negative control, and incubation with an anti-CD3 antibody (eBioscience; clone 2C11) served as a positive control for the TCR transductant. Secreted IL-2 in the culture supernatant was measured using a highly sensitive enzyme-linked immunosorbent assay (ELISA). […] Assays for effects on cell viability and for specificity, assayed in the absence of gliadin peptide or in the presence of a stimulating anti-CD3 antibody, were performed. A=71-100%; B=41-70%; C=11-40%; D=0-10%, NT=Not tested.

[1] = TCR transductants (α I- or α II-gliadin) + gliadin peptide + HLA-DQ2 K562 cells

Row | Compound | DQ2 IL2 Maximal % Inhibition [1] | concentration at which the compound exhibited maximum % inhibition (DQ2 IL2) [µM] | DQ2 IL2 Maximal % Inhibition (Table 2, TCR transductants + gliadin peptide + HLA-DQ2 K562 cells) | concentration at which the compound exhibited maximum % inhibition (DQ2 IL2) (Table 2) [µM]
1 | CC(C)(C)c1ccc(C(=O)NC2CCc3n[nH]c(=O)cc3C2)cc1 (stereo not shown) [Compound 13] | D (D=0-10%) | 0.1 | – | –
2 | CCc1ccc(C(=O)NC2CCc3nn(CC(N)=O)c(=O)cc3C2)cc1 (stereo not shown) [Compound 38] | A (A=71-100%) | 200 | – | –
3 | CC(C)c1ccc(C(=O)NC2CCc3nn(CC4CCCCC4)c(=O)cc3C2)cc1 (stereo not shown) [Compound 49] | A (A=71-100%) | 200 | – | –
4 | CCCC(=O)NC1CCc2n[nH]c(=O)cc2C1 (stereo not shown) [Compound 8] | D (D=0-10%) | 200 | – | –
5 | CC(C)c1ccc(C(=O)NC2CCc3nn(C4CCC4)c(=O)cc3C2)cc1 (stereo not shown) [Compound 56] | A (A=71-100%) | 200 | – | –
6 | Cn1nc2c(cc1=O)CC(NC(=O)c1ccc(I)cc1)CC2 (stereo not shown) [Compound 35] | B (B=41-70%) | 200 | – | –
7 | Cn1nc2c(cc1=O)CC(NC(=O)c1ccc3ccccc3c1)CC2 (stereo not shown) [Compound 17] | A (A=71-100%) | 100 | – | –
8 | CC(C)c1ccc(C(=O)NC2CCc3nn(CC(=O)O)c(=O)cc3C2)cc1 (stereo not shown) [Compound 43] | A (A=71-100%) | 200 | – | –
9 | Cn1nc2c(cc1=O)CC(NC(=O)c1ccc(C(F)(F)F)cc1)CC2 (stereo not shown) [Compound 21] | A (A=71-100%) | 100 | – | –
10 | CCCC(=O)NC1CCc2nn(C)c(=O)cc2C1 (stereo not shown) [Compound 23] | C (C=11-40%) | 100 | – | –
11 | O=C(NC1CCc2n[nH]c(=O)cc2C1)C1CCCCC1 (stereo not shown) [Compound 12] | C (C=11-40%) | 0.1 | – | –
12 | CC(C)c1ccc(C(=O)NC2CCc3nn(Cc4ccccc4)c(=O)cc3C2)cc1 (stereo not shown) [Compound 50] | A (A=71-100%) | 200 | – | –
13 | Cn1nc2c(cc1=O)CC(NC(=O)c1ccc3ccccc3n1)CC2 (stereo not shown) [Compound 61] | – | – | A (A=71-100%) | 200
14 | O=C(NC1CCc2n[nH]c(=O)cc2C1)c1ccc(I)cc1 (stereo not shown) [Compound 31] | C (C=11-40%) | 200 | – | –
15 | Cn1nc2c(cc1=O)CC(NC(=O)c1ccc(Cl)cc1)CC2 (stereo not shown) [Compound 33] | B (B=41-70%) | 200 | – | –
16 | CCCCc1ccc(C(=O)NC2CCc3n[nH]c(=O)cc3C2)cc1 (stereo not shown) [Compound 5, 4-n-butyl-N-(3-oxo-5,6,7,8-tetrahydrocinnolin-6-yl)benzamide] | D (D=0-10%) | 50 | – | –
17 | CC(C)c1ccc(C(=O)NC2CCc3nn(C(C)C)c(=O)cc3C2)cc1 (stereo not shown) [Compound 44] | A (A=71-100%) | 200 | – | –
18 | O=C(NC1CCc2n[nH]c(=O)cc2C1)c1ccc(F)cc1 (stereo not shown) [Compound 28] | C (C=11-40%) | 200 | – | –
19 | CCCCn1nc2c(cc1=O)CC(NC(=O)c1ccc(C(C)C)cc1)CC2 (stereo not shown) [Compound 46] | B (B=41-70%) | 200 | – | –

Row | Compound | DQ2 IL2 Maximal % Inhibition [1] | concentration at which the compound exhibited maximum % inhibition (DQ2 IL2) [µM] | DQ2 IL2 Maximal % Inhibition (Table 2, TCR transductants + gliadin peptide + HLA-DQ2 K562 cells) | concentration at which the compound exhibited maximum % inhibition (DQ2 IL2) (Table 2) [µM]
20 | CC(C)c1ccc(C(=O)NC2CCc3nn(C4CCOCC4)c(=O)cc3C2)cc1 (stereo not shown) [Compound 55] | A (A=71-100%) | 200 | – | –
21 | CC(C)c1ccc(C(=O)NC2CCc3nn(CC4CCC4)c(=O)cc3C2)cc1 (stereo not shown) [Compound 48] | A (A=71-100%) | 100 | – | –
22 | CC(C)(C)C(=O)NC1CCc2n[nH]c(=O)cc2C1 (stereo not shown) [Compound 10] | D (D=0-10%) | 200 | – | –
23 | Cc1ccc(C(=O)NC2CCc3n[nH]c(=O)cc3C2)cc1 (stereo not shown) [Compound 2] | C (C=11-40%) | 100 | – | –
24 | CC(C)c1ccc(C(=O)NC2CCc3nn(CC(C)(C)O)c(=O)cc3C2)cc1 (stereo not shown) [Compound 58] | A (A=71-100%) | 200 | – | –
25 | O=C(NC1CCc2n[nH]c(=O)cc2C1)c1ccc(Br)cc1 (stereo not shown) [Compound 30] | C (C=11-40%) | 200 | – | –
26 | CC(C)c1ccc(C(=O)NC2CCc3nn(C4CC4)c(=O)cc3C2)cc1 (stereo not shown) [Compound 53] | A (A=71-100%) | 200 | – | –
27 | CC(C)c1ccc(C(=O)NC2CCc3n[nH]c(=O)cc3C2)cc1 (stereo not shown) [Compound 4] | A (A=71-100%) | 200 | – | –
28 | O=C(NC1CCc2n[nH]c(=O)cc2C1)c1ccc(C2CCCCC2)cc1 (stereo not shown) [Compound 14] | B (B=41-70%) | 200 | – | –
29 | CC(=O)NC1CCc2n[nH]c(=O)cc2C1 (stereo not shown) [Compound 6] | C (C=11-40%) | 50 | – | –
30 | Cn1nc2c(cc1=O)CC(NC(=O)C1CC1)CC2 (stereo not shown) [Compound 25] | C (C=11-40%) | 200 | – | –
31 | Cn1nc2c(cc1=O)CC(NC(=O)c1ccc(F)cc1)CC2 (stereo not shown) [Compound 32] | C (C=11-40%) | 200 | – | –
32 | O=C(NC1CCc2n[nH]c(=O)cc2C1)c1ccc(Cl)cc1 (stereo not shown) [Compound 29] | B (B=41-70%) | 200 | – | –
33 | Cn1nc2c(cc1=O)CC(NC(=O)C(C)(C)C)CC2 (stereo not shown) [Compound 24] | C (C=11-40%) | 100 | – | –
34 | COCCn1nc2c(cc1=O)CC(NC(=O)c1ccc(C(C)C)cc1)CC2 (stereo not shown) [Compound 51] | B (B=41-70%) | 200 | – | –
35 | O=C(NC1CCc2n[nH]c(=O)cc2C1)C1CC1 (stereo not shown) [Compound 11] | D (D=0-10%) | 200 | – | –
36 | CNC(=O)Cn1nc2c(cc1=O)CC(NC(=O)c1ccc(C(C)C)cc1)CC2 (stereo not shown) [Compound 42] | A (A=71-100%) | 200 | – | –
37 | CCCn1nc2c(cc1=O)CC(NC(=O)c1ccc(C(C)C)cc1)CC2 (stereo not shown) [Compound 41] | A (A=71-100%) | 200 | – | –
38 | CC(C)c1ccc(C(=O)NC2CCc3nn(CC(F)(F)F)c(=O)cc3C2)cc1 (stereo not shown) [Compound 57, 4-isopropyl-N-(3-oxo-2-(2,2,2-trifluoroethyl)-2,3,5,6,7,8-hexahydrocinnolin-6-yl)benzamide] | A (A=71-100%) | 200 | – | –
